Patent EP4737442A1, “DIAMINOVINYLIDENE DERIVATIVE OR SALT THEREOF, PEST CONTROL AGENT CONTAINING SAID COMPOUND, AND METHODS FOR USING THESE” (ADEKA CORPORATION, priority 2023, dated 2025)

Tests used:
Dirofilaria immitis = assay: Effect test on Dirofilaria immitis (larval motility inhibition); conditions: 168 h, read-out: motility inhibition rate
Plutella xylostella = assay: Insecticidal test against Plutella xylostella; conditions: in Brassica rapa, 144 h, read-out: corrected mortality (%), assessment
Text: Six days after the immersion in the drug solution, the number of surviving insects was examined.

Laodelphax striatellus = assay: Insecticidal test against Laodelphax striatellus; conditions: in Oryza sativa, 192 h, read-out: corrected mortality (%), assessment
[1] = system: Frankliniella occidentalis; assay: Insecticidal test against Frankliniella occidentalis; conditions: in Phaseolus vulgaris, 96 h, read-out: corrected mortality (%), assessment
Text: Female adults of Frankliniella occidentalis were inoculated onto Phaseolus vulgaris leaf pieces, and after allowing them to lay eggs for one day, the female adults were removed. […] Four days after the treatment, the number of surviving larvae of this species larvae was examined.

CC(C)(C)c1ccc(CSC(Nc2ccc(F)nc2)=C2C(=O)CC(c3cnc(Cl)c(Br)c3)NC2=O)cc1 (stereo not drawn) [9-32]
inhibition at 100 µM (Dirofilaria immitis): ≥ 50%
mortality at 500 µg/mL (Plutella xylostella): 100%
mortality at 500 ppm (Laodelphax striatellus): 100%

CC(C)(C)OC(=O)N1CC(=O)C(=C(Nc2ccc(F)cn2)Nc2ccc(F)cn2)C(=O)C1 [compound No. 4-10, tertiary butyl 4-(bis((5-fluoropyridin-2-yl)amino)methylene)-3,5-dioxopiperidine-1-carboxylate]
mortality at 500 ppm (Laodelphax striatellus): 100%

CNC(Nc1ccc(F)c(F)c1)=C1C(=O)CN(c2ccc(Br)nc2)N(C(=O)OC)C1=O [6-22]
inhibition at 100 µM (Dirofilaria immitis): ≥ 50%
mortality at 500 ppm (Laodelphax striatellus): 100%

CNC(Nc1ccc(F)cc1)=C1C(=O)CN(c2cnc(C#N)c(Br)c2)N(C(=O)OC)C1=O [6-20]
inhibition at 100 µM (Dirofilaria immitis): ≥ 50%
mortality at 500 µg/mL [1]: 100%
mortality at 500 ppm (Laodelphax striatellus): 100%

NC(Nc1ccc(F)cc1)=C1C(=O)CCCN(c2ccc(C(F)(F)F)cc2)C1=O [compound No. 5-1, 3-(amino((4-fluorophenyl)amino)methylene)-1-(4-(trifluoromethyl)phenyl)azepane-2,4-dione]
mortality at 500 ppm (Laodelphax striatellus): 100%

CNC(Nc1ccc(F)cc1)=C1C(=O)CN(c2cnc(C#N)c(Br)c2)N(C)C1=O [6-47]
inhibition at 100 µM (Dirofilaria immitis): ≥ 50%
mortality at 500 µg/mL [1]: 100%
mortality at 500 ppm (Laodelphax striatellus): 100%

CCOC(=O)N1C(=O)C(=C(NC)Nc2cccc(F)c2)C(=O)CN1c1ccc(C#N)c(Cl)c1 [6-30]
inhibition at 100 µM (Dirofilaria immitis): ≥ 50%
mortality at 500 µg/mL [1]: 100%

CNC(Nc1ccc(F)cc1)=C1C(=O)CN(c2ccc(C#N)nc2)N(Cc2cnc(Cl)s2)C1=O [6-38]
inhibition at 100 µM (Dirofilaria immitis): ≥ 50%
mortality at 500 µg/mL [1]: 100%

COCCOC(=O)N1C(=O)C(=C(Nc2ccc(OC)cc2)Nc2ccc(OC)cc2)C(=O)CN1c1ccc(C#N)nc1 [6-7]
inhibition at 100 µM (Dirofilaria immitis): ≥ 50%
mortality at 500 ppm (Laodelphax striatellus): 100%

COCCOC(=O)N1C(=O)C(=C(Nc2cccc(F)c2)Nc2cccc(F)c2)C(=O)CN1c1ccc(C#N)nc1 [6-6]
inhibition at 100 µM (Dirofilaria immitis): ≥ 50%
mortality at 500 µg/mL (Plutella xylostella): 100%
mortality at 500 µg/mL [1]: 100%
mortality at 500 ppm (Laodelphax striatellus): 100%

CSC(Nc1ccc(F)nc1)=C1C(=O)CC(c2cc(OC(F)F)n(C)n2)NC1=O (stereo not drawn) [9-35]
inhibition at 100 µM (Dirofilaria immitis): ≥ 50%
mortality at 500 µg/mL (Plutella xylostella): 100%
mortality at 500 µg/mL [1]: 100%
mortality at 500 ppm (Laodelphax striatellus): 100%

COC(=O)N1C(=O)C(=C(NCC(F)F)Nc2ccc(F)cc2)C(=O)CN1c1ccc(C#N)nc1 [compound No. 6-15, methyl 2-(6-cyanopyridin-3-yl)-5-(((2,2-difluoroethyl)amino) ((4-fluorophenyl)amino)methylene)-4,6-dioxotetrahydropyridazine-1(2H)-carboxylate]
inhibition at 100 µM (Dirofilaria immitis): ≥ 50%
mortality at 500 ppm (Laodelphax striatellus): 100%

CNC(Nc1ccc(F)nc1)=C1C(=O)CC(c2ccc(C(F)(F)F)cc2)NC1=O (stereo not drawn) [3-11]
inhibition at 100 µM (Dirofilaria immitis): ≥ 50%
mortality at 500 µg/mL (Plutella xylostella): 100%
mortality at 500 ppm (Laodelphax striatellus): 100%

NC(Nc1ccc(F)cc1)=C1C(=O)CC(c2cnc(Cl)c(Br)c2)NC1=O (stereo not drawn) [3-42]
inhibition at 100 µM (Dirofilaria immitis): ≥ 50%
mortality at 500 µg/mL (Plutella xylostella): 100%
mortality at 500 ppm (Laodelphax striatellus): 100%

CNC(Nc1ccc(F)nc1)=C1C(=O)CC(c2nc(-c3ccc(F)cc3)cs2)NC1=O (stereo not drawn) [3-23]
inhibition at 100 µM (Dirofilaria immitis): ≥ 50%
mortality at 500 µg/mL (Plutella xylostella): 100%
mortality at 500 ppm (Laodelphax striatellus): 100%

Cn1nc(C2CC(=O)C(=C(Nc3ccc(F)cc3)Nc3ccc(F)nc3)C(=O)N2)cc1OC(F)F (stereo not drawn) [3-22]
inhibition at 100 µM (Dirofilaria immitis): ≥ 50%
mortality at 500 µg/mL (Plutella xylostella): 100%
mortality at 500 ppm (Laodelphax striatellus): 100%

COC(=O)N1C(=O)C(=C(Nc2ccc(F)cc2)Nc2ccc(F)cc2)C(=O)CN1c1ccc(C#N)nc1 [6-4]
inhibition at 100 µM (Dirofilaria immitis): ≥ 50%
mortality at 500 µg/mL [1]: 100%
mortality at 500 ppm (Laodelphax striatellus): 100%

CSC(Nc1ccc(F)nc1)=C1C(=O)CC(c2nc(-c3ccc(F)cc3)cs2)NC1=O (stereo not drawn) [9-36]
inhibition at 100 µM (Dirofilaria immitis): ≥ 50%
mortality at 500 µg/mL (Plutella xylostella): 100%
mortality at 500 µg/mL [1]: 100%
mortality at 500 ppm (Laodelphax striatellus): 100%
